The results in this text go back to article PMC6271202, “1,2-Substituted 4-(1H)-Quinolones: Synthesis, Antimalarial and Antitrypanosomal Activities in Vitro” (Molecules, 2014).

Like-named read-outs stand apart in the source and are kept apart here.

As a reminder, the IC50 is the concentration that gives 50% inhibition.

The test system of assay [1] is T. b. rhodesiense STIB 900 strain. Description: Antitrypanosomal assay in vitro (Alamar Blue). The class given is cell-based, Trypanosoma brucei rhodesiense. The following applies: for IC50: Trypanosoma brucei, read-out: IC50 (µM) STIB900; for SI L-6/STIB900: selectivity index, quotient of cytotoxicity and antitrypanosomal IC50 values. On the procedure:
(§1) The drug sensitive strain of P. falciparum (NF54) was obtained from Schipol Airport, The Netherlands. […] L-6 cells were derived from rat skeletal myoblasts.
In vitro antitrypanosomal assay was carried out against the bloodstream form of T. b. rhodesiense STIB 900 strain using the Alamar Blue assay. The STIB 900 strain was suspended in fresh medium containing 1% MEM powder medium, MEM non-essential amino acids (100x) supplemented with 25 mM HEPES, additional glucose (1 g/L), 0.2 mM 2-mercaptoethanol, 1.0 mM sodium pyruvate and 15% heat inactivated horse serum. 50 µL (4 × 10^3 trypanosomes/mL) of this suspension was seeded in each well of the 96-well microtiter plate which contained test compounds and the positive control melarsoprol which were dissolved in DMSO and serially diluted to concentrations ranging from […]. The plates were incubated at 37 °C under 5% CO2 atmosphere for 70 h. Alamar Blue solution (10 µL) was added and incubation was continued for further 2–4 h. Plates were read with a Spectramax Gemini XS (Molecular Devices Cooperation, Sunnyvale, CA, USA) at EX/EM (536/588 nm). The IC50 values were calculated by linear regression from the sigmoidal dose inhibition curves using SoftmaxPro software. Tests were carried out two times in triplicate.
Background: The colour change of resazurin is a common sign of viable cells or microbes.

The test system of assay [2] is P. falciparum NF54. In words: Antimalarial assay in vitro (3H-hypoxanthine microculture radioisotope technique). Format: cell-based, Plasmodium falciparum. Particulars: for IC50: Plasmodium falciparum, read-out: IC50 (µM) NF54; for SI L-6/NF54: selectivity index, quotient of L-6 cytotoxicity IC50 and NF54 IC50. On the procedure: as §1
Antimalarial activity in vitro was determined by means of the microculture radioisotope technique which makes use of ^3H-hypoxanthine as an indicator of parasite viability. In this assay the drug sensitive NF54 strain was employed. Parasite cultures supplemented with HEPES (5.94 g/L), NaHCO3 (2.1 g/L), neomycin (100 U/mL), Albumax® (5 g/L) and washed human red cells A^+ at 2.5% haematocrit (0.3% parasitaemia) were incubated in RPMI 1640 medium without hypoxanthine and placed in the 96-well plates. Solutions of 4-(1H)-quinolone derivatives and the positive control chloroquine were dissolved in DMSO at 10 mg/mL and added to the first well followed by serial dilution to afford test concentrations ranging from 100 to 0.002 mg/L. After 48 h incubation at 37 °C, 4% CO2, 3% O2, 93% N2, ^3H-hypoxyanthine was added (0.5 µC/well) and then the plates were incubated further for 24 h under the same condition. The plates were freeze/thawed rapidly, harvested on glass fibre filters and dried. Radioactive hypoxanthine uptake was measured by scintillation counter. IC50 values were calculated from sigmoidal inhibition curves by linear regression using Microsoft Excel. Assays were carried out two times in triplicate.

For assay [3], the system named is rat skeletal muscle cell (L-6). Description: Cytotoxicity assay (Alamar Blue). Format: cell-based. Particulars: Myoblast, read-out: IC50 (µM) L-6. The method, then:
as §1
96-well plates were seeded with 100 µL of RPMI 1640 medium supplemented with 1% L-glutamine and 10% fetal bovine serum, and rat skeletal muscle cell (L-6) (4 × 10^3/mL). The 4-(1H)-quinolone derivatives and the positive control podophyllotoxin were dissolved in DMSO and with a serial dilution ranging from […] were added into the wells in triplicate. The plates were incubated for 70 h and assessed microscopically for cell growth. Alamar Blue solution (10 µL) was then added to each well and incubation continued for 2 h before reading with a Spectramax Gemini XS at EX/EM 536/588. The IC50 values were calculated by linear regression from the sigmoidal dose inhibition curves using SoftmaxPro software. Tests were carried out two times in triplicate.

[4] abbreviates: bloodstream form T. b. rhodesiense STIB 900, 70 h incubation.
Where [5] appears, read: chloroquine sensitive strain P. falciparum NF54, 72 h total incubation.
Where [6] appears, read: L-6 rat skeletal myoblasts, 70 h incubation.

Consider `CCCCCCCCC/C=C/c1cc(=O)c2ccccc2n1C` [Compound 18a], for which the 50% inhibitory concentration (IC50) in assay [1] (setting [4]) was determined as 52.2 µM; in assay [2] (setting [5]), 12.4 µM; in assay [3] (setting [6]), 44.7 µM. Also, the “SI L-6/STIB900” value in assay [1] turned out to be 0.86. Besides, the “SI L-6/NF54” value in assay [2] is given as 3.61.
With `CN1CCN(CCCCCCCCC/C=C/c2cc(=O)c3ccccc3n2C)CC1` [Compound 20, 1-Methyl-2-[(1′E)-11′(N-methylpiperazinyl)undecenyl]-4-(1H)-quinolone], the values for the concentration for half-maximal inhibition (IC50) in assay [1] (setting [4]), in assay [2] (setting [5]) and in assay [3] (setting [6]) were 4.94 µM, 1.35 µM and 32.5 µM, respectively. In addition, the “SI L-6/STIB900” value in assay [1] is recorded as 6.59. In addition, the “SI L-6/NF54” value in assay [2] was 24.14.
In the case of `CCCCCCCCCCCCC#Cc1cc(=O)c2ccccc2n1C` [Compound 35], the IC50 in assay [1] (setting [4]) was 10.5 µM; in assay [2] (setting [5]), 0.84 µM; in assay [3] (setting [6]) it was 15.8 µM. The “SI L-6/STIB900” value in assay [1] worked out at 1.50. In assay [2], the “SI L-6/NF54” value stood at 18.78.
In the same order, the values of `C#CCn1c(/C=C/CCCCCCCCCCCC)cc(=O)c2ccccc21` [Compound 18d] are 24.5 µM, 4.64 µM, 24.7 µM, 1.01 and 5.32.
For `CCCCCOc1ccc(/C=C/c2cc(=O)c3ccccc3n2CCBr)cc1` [Compound 11], in that order: 3.82 µM, 1.56 µM, 42.4 µM, 11.10 and 27.11.
In the same order, the values of `CCCCCC/C=C\CCc1cc(=O)c2ccccc2n1C` [Compound 28] are 11 µM, 15.3 µM, 49.5 µM, 4.48 and 3.22.
In the case of `Cn1c(-c2ccc(CCCCCCBr)cc2)cc(=O)c2ccccc21` [Compound 5a, 1-Methyl-2-[4′-(6′′-bromohexyl)phenyl]-4(1H)-quinolone], the IC50 came out at 1.64 µM in assay [1] (setting [4]), 0.09 µM in assay [2] (setting [5]) and 6.63 µM in assay [3] (setting [6]). Moreover, in assay [1], the “SI L-6/STIB900” value was 4.04.
Turning to `COc1cc([C@@H]2c3cc4c(cc3[C@H](O)[C@H]3COC(=O)[C@H]23)OCO4)cc(OC)c1OC` [Podophyllotoxin, reference compound], the concentration for half-maximal inhibition (IC50) in assay [3] (Rattus norvegicus, 70 h) worked out at 0.017 µM.
For the molecule `CCCCCCCCCC/C=C/c1cc(=O)c2ccccc2n1CCBr` [Compound 18b], the concentration for half-maximal inhibition (IC50) in assay [1] (setting [4]) amounted to 8.28 µM; in assay [2] (setting [5]), 2.3 µM; in assay [3] (setting [6]), 38.4 µM. Besides, the “SI L-6/STIB900” value in assay [1] is 4.63. The “SI L-6/NF54” value in assay [2] is recorded as 16.69.
As to `CCCCCCCCCCCCCCCc1cc(=O)c2ccccc2n1C` [Compound 30], the IC50 worked out at 42.4 µM in assay [1] (setting [4]), 6.4 µM in assay [2] (setting [5]) and 101 µM in assay [3] (setting [6]). Moreover, in assay [1], the “SI L-6/STIB900” value is on record as 2.39. Also, the “loss in potency compared to 29” value in assay [2] (antimalarial potency, P. falciparum NF54, hydrogenation of the alkenyl chain of 29) is on record as 16 fold. Besides, the “SI L-6/NF54” value in assay [2] turned out to be 15.91.
With `Cn1c(-c2ccc(CCCCCCCCCCN3CCCCC3)cc2)cc(=O)c2ccccc21` [Compound 5b, 1-Methyl-2-[4′-(10′′-piperidinyldecyl)phenyl]-4-(1H)-quinolone], the IC50 amounted to 3.41 µM in assay [1] (setting [4]), 0.82 µM in assay [2] (setting [5]) and 9.63 µM in assay [3] (setting [6]). For the same molecule, the “SI L-6/STIB900” value in assay [1] came to 2.83. Moreover, the “SI L-6/NF54” value in assay [2] is listed as 11.73.
`CCCOc1ccc(/C=C/c2cc(=O)c3ccccc3n2CCBr)cc1` [Compound 10a, 1-(2-Bromoethyl)-2-[(1′E)-(4′′-propoxyphenyl)ethenyl]-4-(1H)-quinolone]: the IC50 worked out at 1.25 µM in assay [1] (setting [4]), 1.58 µM in assay [2] (setting [5]) and 25.8 µM in assay [3] (setting [6]). For the same molecule, in assay [2], the “SI L-6/NF54” value was 16.45.
Turning to `Cn1c(CCCCC=C2CCCCCC2)cc(=O)c2ccccc21` [Compound 31], the half-inhibitory concentration (IC50) in assay [1] (setting [4]) came to 14.4 µM; in assay [2] (setting [5]) it was 10.1 µM; in assay [3] (setting [6]), 45.8 µM. Moreover, the “SI L-6/STIB900” value in assay [1] is listed as 3.19. Further, the “SI L-6/NF54” value in assay [2] is 4.52.
For `CCCOc1ccc(/C=C/c2cc(=O)c3cc(Cl)ccc3n2C)cc1` [Compound 10b, 6-Chloro-1-methyl-2-[(1′E)-(4′′-propoxyphenyl)ethenyl]-4-(1H)-quinolone], in that order: 21.9 µM, 0.47 µM, 161 µM, 7.36 and 342.89.
Consider `CCN(CC)CCCC(C)Nc1ccnc2cc(Cl)ccc12` (stereo not drawn) [Chloroquine, reference compound], for which, in assay [2] (NF54, 72 h), the IC50 was found to be 0.0063 µM.
As for `CC1=C(/C=C/c2cc(=O)c3ccccc3n2CCBr)C(C)(C)CCC1` [Compound 21, 1-(2-Bromoethyl)-2-[(1′E)-2′-(2′′,6′′,6′′-trimethyl-1′′-cyclohexen-1′′-yl)ethenyl]-4-(1H)-quinol-one], the IC50 in assay [1] (setting [4]) is 8.85 µM; in assay [2] (setting [5]) it was 1.99 µM; in assay [3] (setting [6]), 33.2 µM. For the same molecule, the “SI L-6/STIB900” value in assay [1] came to 3.76. Further, in assay [2], the “SI L-6/NF54” value amounted to 16.65.
In the same order, the values of `C=CCn1c(/C=C/CCCCCCCCCCCC)cc(=O)c2ccccc21` [Compound 18e] are 8.18 µM, 0.31 µM, 14 µM, 1.71 and 45.78.
For `CCCCCCCCCCC#CCCc1cc(=O)c2ccccc2n1C` [Compound 36a], in that order: 33.5 µM, 3.11 µM, 13.3 µM, 0.39 and 4.29.
In the same order, the values of `CCCCCCCCCCC#CCCc1cc(=O)c2ccccc2n1CC` [Compound 36b] are 16.6 µM, 0.45 µM, 13.6 µM, 0.82 and 29.82.
Turning to `CCCCCCCCCCCC/C=C/c1cc(=O)c2ccccc2n1CCCC` [Compound 18g], the half-inhibitory concentration (IC50) worked out at 18.7 µM in assay [1] (setting [4]), 2.29 µM in assay [2] (setting [5]) and 13.3 µM in assay [3] (setting [6]). In addition, the “SI L-6/STIB900” value in assay [1] was determined as 0.70. Also, the “SI L-6/NF54” value in assay [2] was determined as 5.79.
Take `Cn1c(/C=C/CCCCCCCCCBr)cc(=O)c2ccccc21` [Compound 19]: the half-inhibitory concentration (IC50) in assay [1] (setting [4]) came to 1.07 µM; in assay [2] (setting [5]), 0.69 µM; in assay [3] (setting [6]), 36.3 µM. The “SI L-6/NF54” value in assay [2] is recorded as 52.64.
For `CCCCCCCCCC=CCCCCc1cc(=O)c2ccccc2n1C` [Compound 29], in that order: 10.8 µM, 0.39 µM, 13.2 µM and 33.84.
For `CCCCCCCCCCCC/C=C/c1cc(=O)c2ccccc2n1CCC` [Compound 18f], the 50% inhibitory concentration (IC50) in assay [1] (setting [4]) turned out to be 19.1 µM; in assay [2] (setting [5]), 1.19 µM; in assay [3] (setting [6]) it was 13 µM. In addition, in assay [1], the “SI L-6/STIB900” value is on record as 0.68. The “SI L-6/NF54” value in assay [2] is on record as 10.99.
On to `Nc1nc(N)nc(Nc2ccc([As]3SCC(CO)S3)cc2)n1` (stereo not drawn) [Melarsoprol, reference compound], for which the IC50 in assay [1] (70 h) turned out to be 0.0075 µM.
